Test results as given in patent US6737383B1, “Herbicidal oxadiazolidines” (priority 1999, dated 2004).

Key:
Alexandergrass = test: Test D Alexandergrass; type: in vivo, Brachiaria plantaginea; conditions: Preemergence, 0 to 100 scale
Source text: (§1) Seeds, tubers, or plant parts of Alexandergrass (Brachiaria plantaginea), bermuda-grass (Cynodon dactylon), common pursiane (Portulaca oleracea), common ragweed (Ambrosia elatior), common groundsel (Senecio vulgaris), dallisgrass (Paspalum dilatatum), goosegrass (Eleusine indica), guineagrass (Panicum maximum), itchgrass (Rottboellia exaltata), Johnson grass (Sorghum halepense), large crabgrass (Digitaria sanguinalis), pitted morningglory (Ipomoea lacunosa), purple nutsedge (Cyperus rotundus), sandbur (Cenchrus echinatus), sourgrass (Trichachne insularis), Spanishneedles (Bidens bipinnata), surinam grass (Brachiaria decumbens) and tall mallow (Malva sylvestris) were planted into greenhouse pots of flats containing greenhouse planting medium. Plant species were grown in separate pots or individual compartments. Preemergence applications were made within one day of planting the seed or plant part.
(§2) Test chemicals were formulated in a non-phytotoxic solvent mixture which included a surfactant and applied preemergence to the surface of the pot containing seeds in a sandy loam soil. Untreated control pots and treated pots were placed in the greenhouse for growth and visually evaluated for injury 14 to 21 days after herbicide application. Plant response ratings, summarized in Table C, are based on a 0 to 100 scale where 0 is no injury and 100 is complete control. A dash (−) response means no test result.

bermuda-grass = test: Test D bermudagrass; type: in vivo, Cynodon dactylon; conditions: Preemergence, 0 to 100 scale
Method in brief: (§3)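 Greenhouse pots, seeds in sandy loam; compounds formulated in non-phytotoxic solvent with surfactant; preemergence treatments went on the soil surface within one day of planting. Injury rated visually 14 to 21 days after application on a 0 (none) to 100 (complete control) scale.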

common ragweed = test: Test D common ragweed; type: in vivo, Ambrosia elatior; conditions: Preemergence, 0 to 100 scale
Method in brief: as §3

common groundsel = test: Test D common groundsel; type: in vivo, Senecio vulgaris; conditions: Preemergence, 0 to 100 scale
Source text: as §1, §2

dallisgrass = test: Test D dallisgrass; type: in vivo, Paspalum dilatatum; conditions: Preemergence, 0 to 100 scale
Method in brief: as §3

goosegrass = test: Test D goosegrass; type: in vivo, Eleusine indica; conditions: Preemergence, 0 to 100 scale
Source text: as §1, §2

guineagrass = test: Test D guineagrass; type: in vivo, Panicum maximum; conditions: Preemergence, 0 to 100 scale
Method in brief: as §3

itchgrass = test: Test D itchgrass; type: in vivo, Rottboellia exaltata; conditions: Preemergence, 0 to 100 scale
Method in brief: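 Scoring used a 0–100 visual injury scale, with 0 meaning no effect and 100 complete control, assessed 14–21 days after application alongside untreated pots. Preemergence treatments went onto sandy loam surfaces of separately potted seeds within a day of sowing.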

Johnson grass = test: Test D Johnson grass; type: in vivo, Sorghum halepense; conditions: Preemergence, 0 to 100 scale
Method in brief: as §3

large crabgrass = test: Test D large crabgrass; type: in vivo, Digitaria sanguinalis; conditions: Preemergence, 0 to 100 scale
Method in brief: as §3

pitted morningglory = test: Test D pitted morningglory; type: in vivo, Ipomoea lacunosa; conditions: Preemergence, 0 to 100 scale
Source text: as §1
as §2, with “Plant response ratings, summarized in Table C, are based on a 0 to 100 scale where 0 is no injury and 100 is complete control.” left out

purple nutsedge = test: Test D purple nutsedge; type: in vivo, Cyperus rotundus; conditions: Preemergence, 0 to 100 scale
Method in brief: as §3

sandbur = test: Test D sandbur; type: in vivo, Cenchrus echinatus; conditions: Preemergence, 0 to 100 scale
Source text: as §1, §2

tall mallow = test: Test D tall mallow; type: in vivo, Malva sylvestris; conditions: Preemergence, 0 to 100 scale
Source text: as §1, §2

Green foxtail = test: Test D green foxtail; type: in vivo; conditions: Preemergence, 0 to 100 scale
Method in brief: as §3

field bindweed = test: Test C postemergence field bindweed; type: in vivo, Convolvulus arvensis; conditions: 0 to 100 scale, 0 no effect, 100 complete control
Method in brief: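 Compounds in a non-phytotoxic solvent with surfactant were sprayed postemergence on greenhouse-grown plants in 60:40 sandy loam/potting mix. After about 14 to 21 days, visual ratings against untreated controls on a 0 (no effect) to 100 (complete control) scale.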

[1] = Rate 16 g/ha, 0 no injury, 100 complete control
[2] = Rate 32 g/ha, 0 no injury, 100 complete control
[3] = Rate 64 g/ha, 0 no injury, 100 complete control
[4] = Rate 125 g/ha, 0 no injury, 100 complete control

Cc1ccccc1-n1c(=O)on(C(=O)N(c2ccccc2)C(C)C)c1=O [Compound 36]
Plant response rating, Alexandergrass (Alexandergrass; Rate 500 g/ha): 98
Plant response rating, Bermudagrass (bermuda-grass; Rate 500 g/ha): 100
Plant response rating, C. ragweed (common ragweed; Rate 500 g/ha): 10
Plant response rating, Com. groundsel (common groundsel; Rate 500 g/ha): 100
Plant response rating, Dallisgrass (dallisgrass; Rate 500 g/ha): 100
Plant response rating, Goosegrass (goosegrass; Rate 500 g/ha): 100
Plant response rating, Guineagrass (guineagrass; Rate 500 g/ha): 100
Plant response rating, Itchgrass (itchgrass; Rate 500 g/ha): 80
Plant response rating Johnsongrass (Johnson grass; Rate 500 g/ha): 0
Plant response rating Large crabgrass (large crabgrass; Rate 500 g/ha): 100
Plant response rating, P. morninglory (pitted morningglory; Rate 500 g/ha): 0
Plant response rating, Purple nutsedge (purple nutsedge; Rate 500 g/ha): 0
Plant response rating, Sandbur (sandbur; Rate 500 g/ha): 100
Plant response rating, Tall Mallow (tall mallow; Rate 500 g/ha): 0
Plant response rating, Green foxtail (Green foxtail; Rate 500 g/ha): 100

C=CCn1c(=O)on(C(=O)N(c2ccc(F)cc2)C(C)C)c1=O [Compound 146]
Plant response rating Field bindweed (field bindweed; Rate 140 g/ha): 0
Plant response rating Field bindweed (field bindweed; Rate 280 g/ha): 0
Plant response rating Field bindweed (field bindweed; Rate 560 g/ha): 0
Plant response rating Field bindweed (field bindweed; Rate 1120 g/ha): 0
Plant response rating, Alexandergrass (Alexandergrass; [1]): 65
Plant response rating, Alexandergrass (Alexandergrass; [2]): 85
Plant response rating, Alexandergrass (Alexandergrass; [3]): 95
Plant response rating, Alexandergrass (Alexandergrass; [4]): 98
Plant response rating, Alexandergrass (Alexandergrass; Rate 250 g/ha): 100
Plant response rating, Alexandergrass (Alexandergrass; Rate 500 g/ha): 100
Plant response rating, Bermudagrass (bermuda-grass; [1]): 65
Plant response rating, Bermudagrass (bermuda-grass; [2]): 100
Plant response rating, Bermudagrass (bermuda-grass; [3]): 95
Plant response rating, Bermudagrass (bermuda-grass; [4]): 90
Plant response rating, Bermudagrass (bermuda-grass; Rate 250 g/ha): 90
Plant response rating, Bermudagrass (bermuda-grass; Rate 500 g/ha): 100
Plant response rating, C. ragweed (common ragweed; [1]): 0
Plant response rating, C. ragweed (common ragweed; [2]): 0
Plant response rating, C. ragweed (common ragweed; [3]): 0
Plant response rating, C. ragweed (common ragweed; [4]): 0
Plant response rating, C. ragweed (common ragweed; Rate 250 g/ha): 60
Plant response rating, C. ragweed (common ragweed; Rate 500 g/ha): 75
Plant response rating, Com. groundsel (common groundsel; [1]): 65
Plant response rating, Com. groundsel (common groundsel; [2]): 0
Plant response rating, Com. groundsel (common groundsel; [3]): 0
Plant response rating, Com. groundsel (common groundsel; [4]): 75
Plant response rating, Com. groundsel (common groundsel; Rate 250 g/ha): 85
Plant response rating, Com. groundsel (common groundsel; Rate 500 g/ha): 100
Plant response rating, Dallisgrass (dallisgrass; [1]): 80
Plant response rating, Dallisgrass (dallisgrass; [2]): 90
Plant response rating, Dallisgrass (dallisgrass; [3]): 98
Plant response rating, Dallisgrass (dallisgrass; [4]): 100
Plant response rating, Dallisgrass (dallisgrass; Rate 250 g/ha): 100
Plant response rating, Dallisgrass (dallisgrass; Rate 500 g/ha): 100
Plant response rating, Goosegrass (goosegrass; [1]): 90
Plant response rating, Goosegrass (goosegrass; [2]): 98
Plant response rating, Goosegrass (goosegrass; [3]): 100
Plant response rating, Goosegrass (goosegrass; [4]): 100
Plant response rating, Goosegrass (goosegrass; Rate 250 g/ha): 100
Plant response rating, Goosegrass (goosegrass; Rate 500 g/ha): 100
Plant response rating, Guineagrass (guineagrass; [1]): 90
Plant response rating, Guineagrass (guineagrass; [2]): 95
Plant response rating, Guineagrass (guineagrass; [3]): 100
Plant response rating, Guineagrass (guineagrass; [4]): 100
Plant response rating, Guineagrass (guineagrass; Rate 250 g/ha): 100
Plant response rating, Guineagrass (guineagrass; Rate 500 g/ha): 100
Plant response rating, Itchgrass (itchgrass; [1]): 85
Plant response rating, Itchgrass (itchgrass; [2]): 90
Plant response rating, Itchgrass (itchgrass; [3]): 90
Plant response rating, Itchgrass (itchgrass; [4]): 90
Plant response rating, Itchgrass (itchgrass; Rate 250 g/ha): 100
Plant response rating, Itchgrass (itchgrass; Rate 500 g/ha): 100
Plant response rating Johnsongrass (Johnson grass; [1]): 60
Plant response rating Johnsongrass (Johnson grass; [2]): 60
Plant response rating Johnsongrass (Johnson grass; [3]): 60
Plant response rating Johnsongrass (Johnson grass; [4]): 80
Plant response rating Johnsongrass (Johnson grass; Rate 250 g/ha): 90
Plant response rating Johnsongrass (Johnson grass; Rate 500 g/ha): 95
Plant response rating Large crabgrass (large crabgrass; [1]): 90
Plant response rating Large crabgrass (large crabgrass; [2]): 100
Plant response rating Large crabgrass (large crabgrass; [3]): 100
Plant response rating Large crabgrass (large crabgrass; [4]): 100
Plant response rating Large crabgrass (large crabgrass; Rate 250 g/ha): 100
Plant response rating Large crabgrass (large crabgrass; Rate 500 g/ha): 100
Plant response rating, P. morninglory (pitted morningglory; [1]): 0
Plant response rating, P. morninglory (pitted morningglory; [2]): 0
Plant response rating, P. morninglory (pitted morningglory; [3]): 0
Plant response rating, P. morninglory (pitted morningglory; [4]): 0
Plant response rating, P. morninglory (pitted morningglory; Rate 250 g/ha): 0
Plant response rating, P. morninglory (pitted morningglory; Rate 500 g/ha): 20
Plant response rating, Purple nutsedge (purple nutsedge; [1]): 40
Plant response rating, Purple nutsedge (purple nutsedge; [2]): 40
Purple nutsedge plant response rating (purple nutsedge; [3]): 65
Purple nutsedge plant response rating (purple nutsedge; [4]): 70
Plant response rating, Purple nutsedge (purple nutsedge; Rate 250 g/ha): 75
Plant response rating, Purple nutsedge (purple nutsedge; Rate 500 g/ha): 100
Plant response rating, Sandbur (sandbur; [1]): 0
Plant response rating, Sandbur (sandbur; [2]): 85
Sandbur plant response rating (sandbur; [3]): 100
Sandbur plant response rating (sandbur; [4]): 100
Plant response rating, Sandbur (sandbur; Rate 250 g/ha): 100
Plant response rating, Sandbur (sandbur; Rate 500 g/ha): 100
Plant response rating, Tall Mallow (tall mallow; [1]): 40
Plant response rating, Tall Mallow (tall mallow; [2]): 40
Tall Mallow plant response rating (tall mallow; [3]): 50
Tall Mallow plant response rating (tall mallow; [4]): 80
Plant response rating, Tall Mallow (tall mallow; Rate 250 g/ha): 90
Plant response rating, Tall Mallow (tall mallow; Rate 500 g/ha): 100
Green foxtail plant response rating (Green foxtail; [3]): 100
Plant response rating, Green foxtail (Green foxtail; [3]): 100
Green foxtail plant response rating (Green foxtail; [4]): 100
Plant response rating, Green foxtail (Green foxtail; [4]): 100
Plant response rating, Green foxtail (Green foxtail; Rate 250 g/ha): 100
Plant response rating, Green foxtail (Green foxtail; Rate 500 g/ha): 100

CCc1ccccc1-n1c(=O)on(C(=O)N(c2ccc(F)cc2)C(C)C)c1=O [Compound 34]
Plant response rating, Alexandergrass (Alexandergrass; [2]): 0
Plant response rating, Alexandergrass (Alexandergrass; [3]): 20
Plant response rating, Alexandergrass (Alexandergrass; [4]): 30
Plant response rating, Alexandergrass (Alexandergrass; Rate 250 g/ha): 60
Plant response rating, Bermudagrass (bermuda-grass; [2]): 85
Plant response rating, Bermudagrass (bermuda-grass; [3]): 98
Plant response rating, Bermudagrass (bermuda-grass; [4]): 100
Plant response rating, Bermudagrass (bermuda-grass; Rate 250 g/ha): 100
Plant response rating, C. ragweed (common ragweed; [2]): 0
Plant response rating, C. ragweed (common ragweed; [3]): 0
Plant response rating, C. ragweed (common ragweed; [4]): 0
Plant response rating, C. ragweed (common ragweed; Rate 250 g/ha): 0
Plant response rating, Com. groundsel (common groundsel; [2]): 0
Plant response rating, Com. groundsel (common groundsel; [3]): 0
Plant response rating, Com. groundsel (common groundsel; [4]): 0
Plant response rating, Com. groundsel (common groundsel; Rate 250 g/ha): 0
Plant response rating, Dallisgrass (dallisgrass; [2]): 0
Plant response rating, Dallisgrass (dallisgrass; [3]): 80
Plant response rating, Dallisgrass (dallisgrass; [4]): 98
Plant response rating, Dallisgrass (dallisgrass; Rate 250 g/ha): 100
Plant response rating, Goosegrass (goosegrass; [2]): 0
Plant response rating, Goosegrass (goosegrass; [3]): 75
Plant response rating, Goosegrass (goosegrass; [4]): 85
Plant response rating, Goosegrass (goosegrass; Rate 250 g/ha): 98
Plant response rating, Guineagrass (guineagrass; [2]): 30
Plant response rating, Guineagrass (guineagrass; [3]): 80
Plant response rating, Guineagrass (guineagrass; [4]): 85
Plant response rating, Guineagrass (guineagrass; Rate 250 g/ha): 98
Plant response rating, Itchgrass (itchgrass; [2]): 0
Plant response rating, Itchgrass (itchgrass; [3]): 0
Plant response rating, Itchgrass (itchgrass; [4]): 0
Plant response rating, Itchgrass (itchgrass; Rate 250 g/ha): 20
Plant response rating Johnsongrass (Johnson grass; [2]): 0
Plant response rating Johnsongrass (Johnson grass; [3]): 0
Plant response rating Johnsongrass (Johnson grass; [4]): 20
Plant response rating Johnsongrass (Johnson grass; Rate 250 g/ha): 30
Plant response rating Large crabgrass (large crabgrass; [2]): 85
Plant response rating Large crabgrass (large crabgrass; [3]): 98
Plant response rating Large crabgrass (large crabgrass; [4]): 100
Plant response rating Large crabgrass (large crabgrass; Rate 250 g/ha): 100
Plant response rating, P. morninglory (pitted morningglory; [2]): 0
Plant response rating, P. morninglory (pitted morningglory; [3]): 0
Plant response rating, P. morninglory (pitted morningglory; [4]): 0
Plant response rating, P. morninglory (pitted morningglory; Rate 250 g/ha): 0
Plant response rating, Purple nutsedge (purple nutsedge; [2]): 0
Purple nutsedge plant response rating (purple nutsedge; [3]): 0
Purple nutsedge plant response rating (purple nutsedge; [4]): 0
Plant response rating, Purple nutsedge (purple nutsedge; Rate 250 g/ha): 0
Plant response rating, Sandbur (sandbur; [2]): 0
Sandbur plant response rating (sandbur; [3]): 0
Sandbur plant response rating (sandbur; [4]): 30
Plant response rating, Sandbur (sandbur; Rate 250 g/ha): 40
Plant response rating, Tall Mallow (tall mallow; [2]): 0
Tall Mallow plant response rating (tall mallow; [3]): 0
Tall Mallow plant response rating (tall mallow; [4]): 0
Plant response rating, Tall Mallow (tall mallow; Rate 250 g/ha): 0
Plant response rating, Green foxtail (Green foxtail; [2]): 0
